Data taken from patent US9668960B2, “Methods useful in studying or modulating skin or hair pigmentation, plant extracts for use in compositions and cosmetic care method” (L V M H RECHERCHE, priority 2008, dated 2017).

Legend:
tyrosinase [1] = experiment: DOPA oxidase detection for tyrosinase activity in pigmented normal human melanocytes; format: cell-based; details: 72 h
Protocol: The cells were prepared for SDS-PAGE and transblotted onto PVDF membranes. 70 μg of un-reduced protein extract without boiling was pipetted into the appropriate wells of 8% SDS-PAGE gels. […] The L-DOPA reaction was stopped by washing the membrane in distilled water and the membrane was scanned. […] In addition IBMX and NH4Cl (positive melanocytic modulators) and niacinamide (negative modulator) were used as controls. […] Normal human epidermal melanocytes (Female-52; p5) were treated for 72 h with L-18 (0.001%), L-19 (1%), L-20 (0.5%), L-21 (10 μg/ml), LVMH-22 (1%) and L-23 (0.05 μg/ml). Controls: Melanocytic modulators: IBMX (100 μM), NH4Cl (100 μM), and niacinamide (10 μM). (A) Protein extracts were electroblotted and membranes stained with L-DOPA for the estimation of tyrosinase activity.

FM55 melanoma cells = experiment: Melanin assay (melanogenesis) in moderately-pigmented FM55 melanoma; format: cell-based, human; details: 72 h
Protocol: Cells were then washed 3-times with sterile PBS and supplemented with 350 μl of either fresh serum-free RPMI medium (melanoma cells) or starved serum-free and BPE-free melanocyte medium (EM) and incubated at 37° C. and 5% CO2 for 24 h. Cells were then washed with sterile PBS 3-times and incubated with IBMX 1×10^-4 M at 37° C. and 5% CO2 for 12, 24, and 72 h. Cells were then gently washed 3-times with sterile PBS and fixed in ice-cold methanol for 10 minutes at -20° C. Slides were stored at -20° C. until immunocytochemistry was performed. […] The melanin standards were pipetted into a 96 well plate to produce a calibration curve for the assessment of melanin content in the test samples. 400 μl of 1 M NaOH was added to each cell pellet and dissolved on a heat block (100° C.) for 15 minutes. The pellets were vortexed vigorously and the solubilized pellet was pipetted into the same 96-well plate. The optical densities of the sample were read at […] on a DYNEX REVELATION 4.02 program. Melanin content of each test sample was read from the calibration curve. […] In addition IBMX and NH4Cl (positive melanocytic modulators) and niacinamide (negative modulator) were used as controls. […] Controls: Melanocytic modulators: IBMX (100 μM), NH4Cl (100 μM), and niacinamide (10 μM). (A) Melanin content was determined spectrophotometrically (475 nm) after sodium hydroxide solubilisation. […] (B). Results were expressed as the change in melanin content (pg/cell) compared to unstimulated control levels. Means are ±SEM of 3 independent experiments with *P<0.05, **P<0.01, ***P<0.001.

[2] = test system: Normal human epidermal melanocytes (F52; p5); experiment: Melanin assay (melanogenesis) in normal pigmented human melanocytes; format: cell-based; details: 72 h
Protocol: Cells were then washed 3-times with sterile PBS and supplemented with 350 μl of either fresh serum-free RPMI medium (melanoma cells) or starved serum-free and BPE-free melanocyte medium (EM) and incubated at 37° C. and 5% CO2 for 24 h. Cells were then washed with sterile PBS 3-times and incubated with IBMX 1×10^-4 M at 37° C. and 5% CO2 for 12, 24, and 72 h. Cells were then gently washed 3-times with sterile PBS and fixed in ice-cold methanol for 10 minutes at -20° C. Slides were stored at -20° C. until immunocytochemistry was performed. […] The melanin standards were pipetted into a 96 well plate to produce a calibration curve for the assessment of melanin content in the test samples. 400 μl of 1 M NaOH was added to each cell pellet and dissolved on a heat block (100° C.) for 15 minutes. The pellets were vortexed vigorously and the solubilized pellet was pipetted into the same 96-well plate. The optical densities of the sample were read at […] on a DYNEX REVELATION 4.02 program. Melanin content of each test sample was read from the calibration curve. […] In addition IBMX and NH4Cl (positive melanocytic modulators) and niacinamide (negative modulator) were used as controls. Visible change was not particularly evident in normal melanocyte due to their already high basal melanin levels (FIG. 1). By contrast, visible change was evident in melanoma cells basal melanin levels were low (FIG. 2). […] Normal human epidermal melanocytes (Female-52; p5) were treated for 72 h with L-18 (0.001%), L-19 (1%), L-20 (0.5%), L-21 (10 μg/ml), L-22 (1%) and L-23 (0.05 μg/ml). Controls: Melanocytic modulators: IBMX (100 μM), NH4Cl (100 μM), and niacinamide (10 μM). (A) Melanin content was determined spectro-photometrically (475 nm) after sodium hydroxide solubilise (B) Visible change was not particularly evident in these cells due to their already high basal melanin levels. Results were expressed as change in melanin content (pg/cell) compared to unstimulated control levels. Means are ±SEM of 3 independent experiments with *P<0.05, **P<0.01, ***P<0.001. NS-Not Significant

tyrosinase [3] = experiment: DOPA oxidase detection for tyrosinase activity in FM55 melanoma; format: cell-based, human; details: 72 h
Protocol: The cells were prepared for SDS-PAGE and transblotted onto PVDF membranes. 70 μg of un-reduced protein extract without boiling was pipetted into the appropriate wells of 8% SDS-PAGE gels. […] The L-DOPA reaction was stopped by washing the membrane in distilled water and the membrane was scanned. […] In addition IBMX and NH4Cl (positive melanocytic modulators) and niacinamide (negative modulator) were used as controls. […] Controls: Melanocytic modulators: IBMX (100 μM), NH4Cl (100 μM), and niacinamide (10 μM.). (A) Protein extracts were electroblotted and membranes stained with L-DOPA for the estimation of tyrosinase activity. (B) Densitometric scanning of band intensities and values were expressed as the fold increase compared to unstimulated control levels. Means are ±SEM of 3 independent experiments with *P<0.05, **P<0.01, ***P<0.001.

human Myo-X = experiment: Knockdown of Myo-X using siRNA in epidermal melanocytes (western blot, immunofluorescence); format: cell-based
Protocol: (§1) Knockdown of Myo-X using siRNA: A synthetic siRNA targeting human Myo-X (5′-[…]-3′) (SEQ ID No 1) and a non-silencing control, consisting of siRNA that has no known homology with mammalian genes (5′-[…]-3′) (SEQ ID No 2) was obtained from Qiagen, Valencia, Calif. A day before siRNA treatment, 5×10^5 epidermal melanocytes per well were plated onto six-well plates at 50-60% confluency and incubated at 37° C. for 12 h. Cells were then treated for 12 h with a final concentration of 25 nM siRNA by using HiPerFect Transfection Reagent (Qiagen, Valencia, Calif.) following the manufacturer's instructions. Fluorescence microscopy was used to verify that approximately 100% of the cells (using non-silencing control labelled with alexa fluor 488 labels) had taken up the siRNA. At 12 h, the cells from each well were replated into 8-well Lab-Tek® chamber slides. For co-culture studies siRNA treated melanocytes were seeded with normal keratinocytes (passage 2) in 8-well Lab-Tek® chamber slides at a cell density of 2×10^4 cells/well and in a ratio of 1 siRNA treated melanocyte to 10 normal keratinocytes. At 24 h the co-culture were processed for double Immunofluorescence staining with gp100 and cytokeratin or Myo-X to study of the influence of gene knockdown on melanosome transfer, and parallel samples were assayed by immunofluorescence staining and western blot analysis to verify gene knockdown. […]

[4] = test system: melanosome transfer from melanocytes to keratinocytes; experiment: Melanosome transfer after knockdown of Myo-X expression in epidermal melanocytes-keratinocytes co-culture; format: cell-based, human; details: Myo-X-silenced melanocytes cultured with normal keratinocytes 24 h; vs non-silencing control siRNA
Protocol: as §1, with “keratinocytes.” for “keratinocytes. At 24 h the co-culture were processed for double Immunofluorescence staining with gp100 and cytokeratin or Myo-X to study of the influence of gene knockdown on melanosome transfer, and parallel samples were assayed by immunofluorescence staining and western blot analysis to verify gene knockdown.”
Using this assay the rate of melanosome transfer from melanocytes to keratinocytes with non-silencing control siRNA conditions was determined (FIG. 8). […]

[5] = L-18 0.001%, L-19 1%, L-20 0.5%, L-21 10 μg/ml, L-22 1%, L-23 0.05 μg/ml, IBMX 100 μM, NH4Cl 100 μM, niacinamide 10 μM, vs basal

Molecule | Changes in tyrosinase activity, F52 EMc % change (tyrosinase [1]; [5]) | effect on tyrosinase (dopa oxidase) activity compared with basal levels (tyrosinase [1]; normal melanocytes (EM), doses as E5) | Changes in melanin levels, FM55 % change (FM55 melanoma cells; [5]) | Melanin content, FM55 (pg/cell) (FM55 melanoma cells; same doses as E3, basal 9.92) | effect on melanin content compared with basal levels (FM55 melanoma cells; FM55 melanoma cells, doses as E3) | Changes in melanin levels, F52 EM % change [2, 5] | Melanin content, F52 EM (pg/cell) ([2]; same doses as E1, basal 35.63) | Changes in tyrosinase activity, FM55 % change (tyrosinase [3]; same doses as E5, vs basal) | effect on tyrosinase (dopa oxidase) activity compared with basal levels (tyrosinase [3]; FM55 melanoma cells, doses as E5) | expression of Myo-X compared to non-silencing control siRNA (human Myo-X; 25 nM siRNA, 12 h, immunofluorescence) | filopodia in Myo-X-silenced melanocytes (human Myo-X; anti-gp100 double-immunolabelling) | melanosome transfer reduced by [4]
Cl.N [NH4Cl] | +159.63% | dramatic increase in dopa oxidase activity of tyrosinase | +478.82% | (56.83) pg/cell | visible increases in melanogenesis | +166.17% | (94.83) pg/cell | +408.27% | dramatic increase in dopa oxidase activity of tyrosinase | – | – | –
siRNA targeting human Myo-X: synthetic siRNA targeting human Myo-X (5′-CAGCGGTATAAGAGAAATCAA-3′), obtained from Qiagen (listed as DNA, chemistry not given here; listed as Homo sapiens) | – | – | – | – | – | – | – | – | – | almost completely inhibited | absence of filopodia | 80%
